Assay results reported in PMC12126525, “Mechanism of ATP hydrolysis in the Hsp70 BiP nucleotide-binding domain” (Nature Communications, 2025).
“And” between values parts separate entries of the source, which are not always exact repeats. Identical values can stand only once. Like-named read-outs stand apart in the source and are kept apart here.

Legend:
BiP NBD [1] = biological target: T1, BiP NBD (Homo sapiens, UniProt P11021); test: Exchange spectroscopy (EXSY) NMR of NBD apo / NBD·Pi exchange; assay type: binding; design: His6 (N, cleaved yes); made in house; host or cells: E. coli BL21-(DE3)-Lemo, pET28a vector; details: 25 °C, 400 μM BiP NBD, 200 μM phosphate
Experimental: ^13C-edited 2D Exchange Spectroscopy (EXSY) experiments were acquired to characterize the exchange between the NBD apo and NDB·Pi state (k3on, k3off). For this purpose, we used a modified methyl-TROSY experiment with an additional EXSY element prior to acquisition (90° ^1H – EXSY mixing delay – 90° ^1H)[49]. A recycle delay of 1 s was used in all experiments. The EXSY mixing times were set to 5, 50, 100, 200, 300, 400, 500, 600, 800, 1000, 1250, 1500 ms, with an average acquisition time of 120 min for each spectrum. The EXSY experiments were performed at 25 °C with a [U-^2H, ^15N, ^12C], Met-[^13CH3]^ε and Ile-[^13CH3]^δ1 BiP NBD sample at 400 μM in NMR buffer (25 mM HEPES, pH 7.5, 150 mM KCl and 20 mM MgCl2) with 200 μM of phosphate.

BiP NBD [2] = biological target: T1, BiP NBD; details: for tADP: Supplementary Fig 16b
Experimental: We next wanted to compare our determined kinetic rates of ADP dissociation, koff2 and koff5 , with a standard assay in the Hsp70 field that measures ADP lifetimes by ADP displacement.
The dissociation rate constants (koff) were determined by fitting the data to a one phase exponential function using a python script. […]
The red line corresponds to the mono-exponential fit of the data. […]
from 0.001 to 10 mM, in the absence of Pi (pink circles) and with 0.5 mM Pi (blue circles). Data points represent the mean for three independent experiments and the error bar represents the standard deviation. The half maximal inhibitory concentration (IC50) of Ca was calculated from three

BiP = details: cited from earlier work
BiP NBD [3] = biological target: T1, BiP NBD; test: Equilibrium 2D methyl-TROSY NMR fingerprint spectra with ligands (ATP analogs, calcium); assay type: binding; design: His6 (N, cleaved yes); made in house; host or cells: E. coli BL21-(DE3)-Lemo, pET28a vector; details: 3.3 mM calcium, 10 mM magnesium
Experimental: First, we probed calcium binding to ADP-bound NBD by NMR equilibrium experiments. […] (Supplementary Fig. 15d). […] (Supplementary Fig. 16).
AMPPNP (adenylyl imidodiphosphate; Jena-bioscience), AMPPCP (adenylyl methylenediphosphate; Jena-bioscience) and ATP-γ-S (adenosine 5’-(gamma-thiotriphosphate; Jena-bioscience) were dissolved in the HKM reaction buffer (25 mM HEPES, pH 7.5, 150 mM KCl and 10 mM MgCl2) at a concentration of 50 mM directly before to be mixed with the BiP NBD sample. Samples were prepared fresh before each use to minimize the known instability of these analogs that undergo slow hydrolysis in solution.
Supplementary Figure 7. Analysis of the BiP NBD ATP-bound state. a, Combined methyl chemical shift differences between the APD·Pi-bound and the ATP-bound state of BiP NBD in-cyclo. The magnitude of 1 and 1.5 SDs are indicated by an orange and a red line, respectively. b, Overlay of 9 crystal structures of BiP NBD in presence of different nucleotides (colored sticks). c, Backbone root means square deviation (RMSD - Å) between the structures shown in (b) and the NBD apo state (PDB 3LDN). d, 2D [13C,1H]-TROSY spectrum of methyl-labeled BiP NBD in equilibrium with the ATP analogs AMPPNP (green), AMPPCP (orange) or ATP-γ-S (yellow), overlayed with the spectrum in-cyclo (pink).
State- and sequence-specific resonance assignments are indicated for the ADP-bound (light blue), ADP·Pi-bound (dark blue) and the ATP-bound (red) states in-cyclo.
(1 picture or pasted object on this page, not shown here)
Supplementary Figure 15. Mapping of calcium binding to BiP NBD. a, Selected details from published structures of BiP. From left to right: yeast BiP(NBD)-Mg2+-ADP (PDB 3QFU), human BiP(NBD)-Mg2+- ADP·Pi (PDB 5EVZ), human BiP(NBD)-Ca2+-ADP (PDB 6ZYH). b, Selected sections of 2D [13C,1H]-methyl-TROSY spectra of residue val50cg1 or Ile52cd1 for the equilibrium experiments of NBD apo (grey), NBD with 5 mM Pi (green), NBD with 1 mM ADP (light blue), NBD with 1 mM ADP·Pi (dark blue), NBD with 1 mM ADP-Ca2+ (dark-pink).and NBD with 3.3 mM calcium ([Mg2+]/[Ca2+]=3) (light-pink). c, Combined methyl chemical shift differences between the BiP NBD APD and the ADP-Ca2+-bound state. The magnitude of 1 and 1.5 SDs are indicated by a light blue and a dark blue line. d, Structure of NBD in […]
the ADP-Ca-bound state (PDB 6ZYH).

BiP NBD [4] = biological target: T1, BiP NBD; test: In-cyclo NMR in the presence of 3.3 mM calcium; assay type: biochemical; design: His6 (N, cleaved yes); made in house; host or cells: E. coli BL21-(DE3)-Lemo, pET28a vector

T1 sequence (P11021 19-406): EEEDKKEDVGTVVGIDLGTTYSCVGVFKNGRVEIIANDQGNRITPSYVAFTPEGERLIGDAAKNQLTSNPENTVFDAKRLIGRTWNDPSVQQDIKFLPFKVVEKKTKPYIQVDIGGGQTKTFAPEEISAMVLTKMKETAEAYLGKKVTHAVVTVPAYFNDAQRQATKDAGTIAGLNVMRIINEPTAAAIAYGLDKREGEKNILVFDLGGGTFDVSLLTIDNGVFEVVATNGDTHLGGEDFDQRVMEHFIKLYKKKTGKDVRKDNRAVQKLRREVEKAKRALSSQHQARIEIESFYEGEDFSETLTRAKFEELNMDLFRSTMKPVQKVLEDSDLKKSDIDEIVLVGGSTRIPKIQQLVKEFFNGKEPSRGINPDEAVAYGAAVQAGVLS

Structure (SMILES): O=P(O)(O)O [Pi]
- koff3 (EXSY) (BiP NBD [1]): 1.32 ± 0.31 s⁻¹
- kon3 (EXSY) (BiP NBD [1]): 5000 ± 2000 M⁻¹ s⁻¹

Structure (SMILES): [Ca+2] [calcium]
- tADP (BiP NBD [2]; Calcium 0.1 μM, second series ([Pi] 0.5 mM)): 52.28 s
- tADP (BiP NBD [2]; Calcium 0.1 μM, series without added Pi): 15.3 s
- tADP (BiP NBD [2]; Calcium 0.5 μM, second series ([Pi] 0.5 mM)): 45.66 s
- tADP (BiP NBD [2]; Calcium 0.5 μM, series without added Pi): 12.1 s
- tADP (BiP NBD [2]; Calcium 1 μM, second series ([Pi] 0.5 mM)): 50.78 s
- tADP (BiP NBD [2]; Calcium 1 μM, series without added Pi): 12.7 s
- tADP (BiP NBD [2]; Calcium 5 μM, second series ([Pi] 0.5 mM)): 54.19 s
- tADP (BiP NBD [2]; Calcium 5 μM, series without added Pi): 15.7 s
- tADP (BiP NBD [2]; Calcium 10 μM, second series ([Pi] 0.5 mM)): 50.03 s
- tADP (BiP NBD [2]; Calcium 10 μM, series without added Pi): 12.2 s
- tADP (BiP NBD [2]; Calcium 25 μM, series without added Pi): 16.2 s
- tADP (BiP NBD [2]; Calcium 50 μM, second series ([Pi] 0.5 mM)): 54.42 s
- tADP (BiP NBD [2]; Calcium 50 μM, series without added Pi): 16.2 s
- tADP (BiP NBD [2]; Calcium 75 μM, series without added Pi): 16.9 s
- tADP (BiP NBD [2]; Calcium 100 μM, second series ([Pi] 0.5 mM)): 49.18 s
- tADP (BiP NBD [2]; Calcium 100 μM, series without added Pi): 18.0 s
- tADP (BiP NBD [2]; Calcium 125 μM, series without added Pi): 19.5 s
- tADP (BiP NBD [2]; Calcium 150 μM, series without added Pi): 22.4 s
- tADP (BiP NBD [2]; Calcium 175 μM, series without added Pi): 21.2 s
- tADP (BiP NBD [2]; Calcium 200 μM, series without added Pi): 30.8 s
- tADP (BiP NBD [2]; Calcium 300 μM, series without added Pi): 33.0 s
- tADP (BiP NBD [2]; Calcium 400 μM, series without added Pi): 36.0 s
- tADP (BiP NBD [2]; Calcium 500 μM, second series ([Pi] 0.5 mM)): 44.74 s
- tADP (BiP NBD [2]; Calcium 500 μM, series without added Pi): 38.8 s
- tADP (BiP NBD [2]; Calcium 1000 μM, second series ([Pi] 0.5 mM)): 48.65 s
- tADP (BiP NBD [2]; Calcium 1000 μM, series without added Pi): 39.9 s
- tADP (BiP NBD [2]; Calcium 5000 μM, second series ([Pi] 0.5 mM)): 49.79 s
- tADP (BiP NBD [2]; Calcium 5000 μM, series without added Pi): 41.9 s
- lifetime of bound ADP·Pi versus calcium concentration (BiP NBD [2]; in the presence of 0.5 mM phosphate): completely independent of the calcium concentration
- IC50 (BiP NBD [2]; read-out: IC50 (ADP mean life as a function of calcium concentration), MABA-ADP release, no Pi, fixed 10 mM magnesium, calcium 0.001 to 10 mM): 212 ± 7 µM
- increase of the MABA-ADP-bound lifetime (BiP; concentration-dependent): up to 4 fold
- decrease of the ATP hydrolysis rate of BiP (BiP; physiological calcium levels compared to no calcium): 2 fold
- calcium binding to ADP-bound NBD (CSPs) (BiP NBD [3]): calcium binding occurred
- molecular hydrolysis rate in-cyclo khydr (BiP NBD [4]; 3.3 mM calcium, 10 mM magnesium): 1.43 ± 0.06 min⁻¹
- khydr (BiP NBD [4]; Fig 5a source data, 3.3 mM calcium: replicates [1]-[3] and average): 1.484 min⁻¹ and 1.451 min⁻¹ and 1.372 min⁻¹
- cycle timing (BiP NBD [4]; Fig 5d source data, 3.3 mM calcium: replicates [1]-[3] and average): 40.4 s and 41.4 s and 43.7 s
